Test results reported in patent US20250340551A1, “SMALL MOLECULE MODULATORS OF STAT6” (Gilead Sciences, Inc., priority 2024, published 2025).

Each compound was assayed on Eotaxin-3 (CCL26) release in human whole blood stimulated with IL-4 (assay: Human whole blood eotaxin-3 assay (IL-4 stimulated, Eotaxin-3 release)). Settings: Homo sapiens, 48 h.
Type: cell-based
Procedure, shortened: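 Lithium-heparin blood preincubated 2 h at 37° C with 4-fold compound dilutions (0.5% DMSO, triplicates), then stimulated with 400 pM recombinant human IL-4 for 48 h. Eotaxin-3 in plasma supernatant measured by MSD immunoassay.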
In the case of Cc1cc(C(=O)N(C)C)nnc1C1=CCN(Cc2cc3c(-c4ccc(N)nc4)ccnc3n2C)CC1 [Example 1z6, 6-(1-((4-(6-aminopyridin-3-yl)-1-methyl-1H-pyrrolo[2,3-b]pyridin-2-yl)methyl)-1,2,3,6-tetrahydropyridin-4-yl)-N,N,5-trimethylpyridazine-3-carboxamide], the Emax is reported as < 20%. CN(C)C(=O)c1ccc(C2=CCN(Cc3cc4c(-c5ccc(N)nc5)ccnc4n3C)CC2)cc1F [Example 1z7, 4-(1-((4-(6-aminopyridin-3-yl)-1-methyl-1H-pyrrolo[2,3-b]pyridin-2-yl)methyl)-1,2,3,6-tetrahydropyridin-4-yl)-2-fluoro-N,N-dimethylbenzamide] was tested, and the Emax was 20 to 30%. In the case of [2H]C([2H])([2H])N(C(=O)c1cnc(C2=CCN(Cc3cc4c(-c5cnc(N)cc5F)ccnc4n3C)CC2)nc1)C([2H])([2H])[2H] [Example 1z11, 2-(1-((4-(6-amino-4-fluoropyridin-3-yl)-1-methyl-1H-pyrrolo[2,3-b]pyridin-2-yl)methyl)-1,2,3,6-tetrahydropyridin-4-yl)-N,N-bis(methyl-d3)pyrimidine-5-carboxamide], the Emax is reported as 20 to 30%. [2H]C([2H])([2H])N(C(=O)c1cnc(C2=CCN(Cc3cc4c(-c5ccc(N)nc5C#N)ccnc4n3C)CC2)nc1)C([2H])([2H])[2H] [Example 1z15, 2-(1-((4-(6-amino-2-cyanopyridin-3-yl)-1-methyl-1H-pyrrolo[2,3-b]pyridin-2-yl)methyl)-1,2,3,6-tetrahydropyridin-4-yl)-N,N-bis(methyl-d3)pyrimidine-5-carboxamide] was tested, and the Emax was < 20%. CN(C)C(=O)c1ncc(C2=CCN(Cc3cc4c(-c5ccc(N)nn5)ccnc4n3C)CC2)cn1 [Example 1z21, 5-(1-((4-(6-aminopyridazin-3-yl)-1-methyl-1H-pyrrolo[2,3-b]pyridin-2-yl)methyl)-1,2,3,6-tetrahydropyridin-4-yl)-N,N-dimethylpyrimidine-2-carboxamide] was tested, and the Emax was 20 to 30%. In the case of CN(C)C(=O)c1ccc(C2CCN(Cc3cc4c(-c5ccc(N)nn5)ccnc4n3C)CC2)cc1 [Example 1z22, 4-(1-((4-(6-aminopyridazin-3-yl)-1-methyl-1H-pyrrolo[2,3-b]pyridin-2-yl)methyl)piperidin-4-yl)-N,N-dimethylbenzamide], the Emax is reported as < 20%.

Same assay, conditions: Homo sapiens, Hec50, 48 h
Work on [2H]C([2H])([2H])N(C(=O)c1ccc([C@@H]2CCN(Cc3cc4c(-c5ccc(N)cn5)ccnc4n3C)[C@H](C)C2)cc1)C([2H])([2H])[2H] [Example 1z9, 4-((2R,4R)-1-((4-(5-aminopyridin-2-yl)-1-methyl-1H-pyrrolo[2,3-b]pyridin-2-yl)methyl)-2-methylpiperidin-4-yl)-N,N-bis(methyl-d3)benzamide] yielded an EC50 of 167 nM. Work on CN(C)C(=O)c1ccc(C2=CCN(Cc3cc4c(-c5ccc(N)nc5)ccnc4n3C)CC2)c(C#N)c1 [Example 1z10, 4-(1-((4-(6-aminopyridin-3-yl)-1-methyl-1H-pyrrolo[2,3-b]pyridin-2-yl)methyl)-1,2,3,6-tetrahydropyridin-4-yl)-3-cyano-N,N-dimethylbenzamide] yielded an EC50 of 473 nM. Compound Cc1cc(C(=O)N(C)C)cc(C)c1C1=CCN(Cc2cc3c(-c4ccc(N)nn4)ccnc3n2C)CC1 [Example 1z12, 4-(1-((4-(6-aminopyridazin-3-yl)-1-methyl-1H-pyrrolo[2,3-b]pyridin-2-yl)methyl)-1,2,3,6-tetrahydropyridin-4-yl)-N,N,3,5-tetramethylbenzamide] has an EC50 of 57 nM. With Cc1cc(C(=O)N(C)C)cc(F)c1C1=CCN(Cc2cc3c(-c4ccc(N)nn4)ccnc3n2C)CC1 [Example 1z14, 4-(1-((4-(6-aminopyridazin-3-yl)-1-methyl-1H-pyrrolo[2,3-b]pyridin-2-yl)methyl)-1,2,3,6-tetrahydropyridin-4-yl)-3-fluoro-N,N,5-trimethylbenzamide] the EC50 was 37.8 nM. CN(C)C(=O)c1cc(F)c(C2=CCN(Cc3cc4c(-c5ccc(N)nc5)ccnc4n3C)CC2)c(F)c1 [Example 1z16, 4-(1-((4-(6-aminopyridin-3-yl)-1-methyl-1H-pyrrolo[2,3-b]pyridin-2-yl)methyl)-1,2,3,6-tetrahydropyridin-4-yl)-3,5-difluoro-N,N-dimethylbenzamide] was tested, and the EC50 was 335 nM. CN(C)C(=O)c1cc(F)c(C2=CCN(Cc3cc4c(-c5ccc(N)cn5)ccnc4n3C)CC2)c(F)c1 [Example 1z17, 4-(1-((4-(5-aminopyridin-2-yl)-1-methyl-1H-pyrrolo[2,3-b]pyridin-2-yl)methyl)-1,2,3,6-tetrahydropyridin-4-yl)-3,5-difluoro-N,N-dimethylbenzamide] was tested, and the EC50 was 368 nM. CN(C)C(=O)c1cc(F)c(C2=CCN(Cc3cc4c(-c5ccc(N)nn5)ccnc4n3C)CC2)c(F)c1 [Example 1z18, 4-(1-((4-(6-aminopyridazin-3-yl)-1-methyl-1H-pyrrolo[2,3-b]pyridin-2-yl)methyl)-1,2,3,6-tetrahydropyridin-4-yl)-3,5-difluoro-N,N-dimethylbenzamide] was tested, and the EC50 was 204 nM. Compound [2H]C([2H])([2H])N(C(=O)c1cc(C)c(C2=CCN(Cc3cc4c(-c5ccc(N)nn5)ccnc4n3C)CC2)c(F)c1)C([2H])([2H])[2H] [Example 1z20, 4-(1-((4-(6-aminopyridazin-3-yl)-1-methyl-1H-pyrrolo[2,3-b]pyridin-2-yl)methyl)-1,2,3,6-tetrahydropyridin-4-yl)-3-fluoro-5-methyl-N,N-bis(methyl-d3)benzamide] has an EC50 of 53.3 nM. With CN(C)C(=O)c1ccc(C2=CCN(Cc3cc4c(-c5ccc(N)nc5)ccnc4n3C)CC2)c(C2CC2)c1 [Example 1z23, 4-(1-((4-(6-aminopyridin-3-yl)-1-methyl-1H-pyrrolo[2,3-b]pyridin-2-yl)methyl)-1,2,3,6-tetrahydropyridin-4-yl)-3-cyclopropyl-N,N-dimethylbenzamide] the EC50 was 853 nM. Cc1cc(C(=O)N(C)C)cc(F)c1C1=CCN(C(C)c2cc3c(-c4ccc(N)nc4)ccnc3n2C)CC1 (centres unmarked) [Example 1z28, 4-(1-(1-(4-(6-aminopyridin-3-yl)-1-methyl-1H-pyrrolo[2,3-b]pyridin-2-yl)ethyl)-1,2,3,6-tetrahydropyridin-4-yl)-3-fluoro-N,N,5-trimethylbenzamide] showed an EC50 of 21.6 nM. Compound Cc1cc(C(=O)N(C)C)cc(F)c1C1=CCN([C@@H](C)c2cc3c(-c4ccc(N)nc4)ccnc3n2C)CC1 [Example 1z29, (S)-4-(1-(1-(4-(6-aminopyridin-3-yl)-1-methyl-1H-pyrrolo[2,3-b]pyridin-2-yl)ethyl)-1,2,3,6-tetrahydropyridin-4-yl)-3-fluoro-N,N,5-trimethylbenzamide] has an EC50 of 1060 nM. Cc1cc(C(=O)N(C)C)cc(F)c1C1=CCN([C@H](C)c2cc3c(-c4ccc(N)nc4)ccnc3n2C)CC1 [Example 1z30, (R)-4-(1-(1-(4-(6-aminopyridin-3-yl)-1-methyl-1H-pyrrolo[2,3-b]pyridin-2-yl)ethyl)-1,2,3,6-tetrahydropyridin-4-yl)-3-fluoro-N,N,5-trimethylbenzamide] showed an EC50 of 10.2 nM. Cc1cc(C(=O)N(C)C)cc(F)c1C1=CCN(C(C)c2cc3c(-c4ccc(N)cn4)ccnc3n2C)CC1 (centres unmarked) [Example 1z31, 4-(1-(1-(4-(5-aminopyridin-2-yl)-1-methyl-1H-pyrrolo[2,3-b]pyridin-2-yl)ethyl)-1,2,3,6-tetrahydropyridin-4-yl)-3-fluoro-N,N,5-trimethylbenzamide] showed an EC50 of 62.8 nM. Compound Cc1cc(C(=O)N(C)C)cc(F)c1C1=CCN([C@@H](C)c2cc3c(-c4ccc(N)cn4)ccnc3n2C)CC1 [Example 1z32, (S)-4-(1-(1-(4-(5-aminopyridin-2-yl)-1-methyl-1H-pyrrolo[2,3-b]pyridin-2-yl)ethyl)-1,2,3,6-tetrahydropyridin-4-yl)-3-fluoro-N,N,5-trimethylbenzamide] has an EC50 of 37.6 nM. Work on Cc1cc(C(=O)N(C)C)cc(F)c1C1=CCN([C@H](C)c2cc3c(-c4ccc(N)cn4)ccnc3n2C)CC1 [Example 1z33, (R)-4-(1-(1-(4-(5-aminopyridin-2-yl)-1-methyl-1H-pyrrolo[2,3-b]pyridin-2-yl)ethyl)-1,2,3,6-tetrahydropyridin-4-yl)-3-fluoro-N,N,5-trimethylbenzamide] yielded an EC50 of 431 nM. In the case of [2H]C([2H])([2H])N(C(=O)c1cc(C)c(C2=CCN(Cc3cc4c(-c5ccc(NC)nn5)ccnc4n3C)CC2)c(F)c1)C([2H])([2H])[2H] [Example 1z34, 3-fluoro-5-methyl-N,N-bis(methyl-d3)-4-(1-((1-methyl-4-(6-(methylamino)pyridazin-3-yl)-1H-pyrrolo[2,3-b]pyridin-2-yl)methyl)-1,2,3,6-tetrahydropyridin-4-yl)benzamide], the EC50 is reported as 132 nM. CN(C)C(=O)c1cc(F)c(C2=CCN(Cc3cc4c(-c5ccc(N)nc5)ccnc4n3C)CC2)c(C2CC2)c1 [Example 1z35, 4-(1-((4-(6-aminopyridin-3-yl)-1-methyl-1H-pyrrolo[2,3-b]pyridin-2-yl)methyl)-1,2,3,6-tetrahydropyridin-4-yl)-3-cyclopropyl-5-fluoro-N,N-dimethylbenzamide] gave an EC50 of 81.8 nM. For CNc1ccc(-c2ccnc3c2cc(C(C)N2CC=C(c4c(C)cc(C(=O)N(C)C)cc4F)CC2)n3C)cn1 (centres unmarked) [Example 1z36, 3-fluoro-N,N,5-trimethyl-4-(1-(1-(1-methyl-4-(6-(methylamino)pyridin-3-yl)-1H-pyrrolo[2,3-b]pyridin-2-yl)ethyl)-1,2,3,6-tetrahydropyridin-4-yl)benzamide], the EC50 was 38.6 nM. With CNc1ccc(-c2ccnc3c2cc([C@H](C)N2CC=C(c4c(C)cc(C(=O)N(C)C)cc4F)CC2)n3C)cn1 [Example 1z37, (S)-3-fluoro-N,N,5-trimethyl-4-(1-(1-(1-methyl-4-(6-(methylamino)pyridin-3-yl)-1H-pyrrolo[2,3-b]pyridin-2-yl)ethyl)-1,2,3,6-tetrahydropyridin-4-yl)benzamide] the EC50 was 439 nM. CNc1ccc(-c2ccnc3c2cc([C@@H](C)N2CC=C(c4c(C)cc(C(=O)N(C)C)cc4F)CC2)n3C)cn1 [Example 1z38, (R)-3-fluoro-N,N,5-trimethyl-4-(1-(1-(1-methyl-4-(6-(methyl-amino)pyridin-3-yl)-1H-pyrrolo[2,3-b]pyridin-2-yl)ethyl)-1,2,3,6-tetrahydropyridin-4-yl)benzamide] was tested, and the EC50 was 12.9 nM.
